The values that follow are results of earlier work, collected in patent US5478816A, “Liquid vitamin formulations containing vitamin D esters” (Bristol-Myers Squibb Company, priority 1993, dated 1995).

Like-named read-outs stand apart in the source and are kept apart here.

The conditions of the data set: cited from earlier work.

On to vitamin D, for which the stability result is on record as “stable” (at a mid-pH); “slowly destroyed” (in an alkaline medium or in the presence of light and air); “unstable” (in an aqueous environment); “unstable” (in the presence of minerals).

For `C=C1CC[C@H](O)C/C1=C/C=C1\CCC[C@]2(C)[C@@H]([C@H](C)/C=C/[C@H](C)C(C)C)CC[C@@H]12` [Vitamin D2], the stability result is on record as “stable” (in corn oil, propylene glycol, and milk); “deteriorate” (in propylene glycol when diluted in water).
